Laboratory results from patent US20100160217A1 (priority 2005, published 2010).

How the values were obtained:
[1] = system: nAChRs; conditions: unc-74 animals; reduction not greater than in unc-38 mutants
Experimental: (§1) Electrophysiology was performed as previously described (Richmond and Jorgensen, 1999a).
(§2) To directly examine levamisole sensitive nAChR function, electrophysiological analysis was performed on wild type and unc-74 mutant animals (FIG. 2). Intact body wall muscles of dissected animals were voltage clamped and the amount of current elicited in response to levamisole was measured.

[2] = system: UNC-49/GABAA receptors; experiment: Electrophysiology: GABA-induced current in wild type and unc-74 animals; format: cell-based, C. elegans; conditions: unc-74 mutant animals
[3] = system: levamisole sensitive nAChR
Experimental: as §1, §2

[4] = system: C. elegans
Experimental: (§3) Pharmacological resistance assays. Plates were equilibrated to room temperature, weighed, and equal volumes of different concentrations of levamisole or aldicarb were added to make plates containing specific concentrations of drug. Once plates dried, they were seeded with a drop of OP50 and incubated overnight at room temperature. A minimum of 15 young adult animals (levamisole) or L4 animals (aldicarb) were placed on drug plates and maintained for two (levamisole) or eight (aldicarb) hours. The percentage of animals on each plate that were paralyzed in response to mild stimulation was determined. Data presented represents the mean +/− SEM of n=number of plates.

[5] = system: C. elegans; experiment: Aldicarb resistance assay (paralysis on drug plates); format: in vivo; conditions: unc-74 animals (data not shown)
Experimental: as §3

CN1CCCC1c1cccnc1 (stereo not drawn) [nicotine]
amplitude of nicotine current relative to wild type [1]: reduced

NCCCC(=O)O [GABA]
GABA induced currents compared with wild type [2]: equivalent

c1ccc([C@H]2CN3CCSC3=N2)cc1 [levamisole]
inward current elicited by focal pulses of levamisole [3]: around 200 pA | levamisole induced current ([3]; unc-74 mutants, voltage clamped muscle cells): completely abolished | resistance to levamisole (paralysis) ([4]; unc-74 mutant animals, all concentrations tested, FIG. 1(B)): completely resistant | response to levamisole ([4]; unc-74 mutants, concentrations that completely paralyze wild type): no response | concentration of levamisole at which animals become paralyzed ([4]; wild type animals, levamisole resistance curves, FIG. 1(B)): ~0.15 mM | time to hypercontraction and complete paralysis ([4]; wild type animals, solid media, millimolar concentrations of levamisole (0.2 mM), FIG. 1(A)): ~2 h

CNC(=O)O/N=C/C(C)(C)SC [aldicarb]
resistance to aldicarb [5]: only partially resistant
